Values of other authors as cited in US10857230B2, “Co-therapy comprising a small molecule CSF-1R inhibitor and an agonistic antibody that specifically binds CD40 for the treatment of cancer” (Janssen Biotech, Inc., priority 2017, dated 2020).

Assays:
[1] = tested on: B cells and dendritic cells; details: cited from earlier work
[2] = patient clinical trials; day of antibody intravenous infusion; cited from earlier work

CP-870,893: cross-linking independent agonistic CD40 antibody; VH and VL of SEQ ID NOs: 44 and 45, may be IgG2
potency in activating B cells relative to dendritic cells [1]: about 20 fold | most common side effects [2]: moderate CRS
